Patent US9284531B2, “Differentiation of human pluripotent stem cells into cells expressing mature hepatocyte markers by 2D and bioreactor culture” (Takara Bio Europe AB, priority 2009, dated 2016)

How the values were obtained:
[1] = system: CYP3A4; assay: CYP P450 activity test in bioreactor cultures (midazolam to 1'OH midazolam); conditions: both bioreactors HepDiff-1 and HepDiff-2, days 40 and 47, 3 μM at start
Method: (§1) Bioreactor cultures that were treated with the hepatic differentiation protocol were tested or their ability to metabolize phenacetin, diclophenac and midazolam via the phase I cytochrome (CYP) P450 enzymes CYP1A2, CYP2C9 and CYP3A4, respectively. At days 40 and 47 after inoculation of the cells a CYP P450 activity test was performed according to the scheme:
(§2) For this purpose, fresh medium inflow and medium outflow was closed and a cocktail of the test substances was injected into the recirculating medium to get the following concentrations at the beginning of the test: 3 μM Midazolam, 9 μM Diclophenac and 26 μM Phenacetin. During the next 24 hours, the bioreactor was operated in recirculation mode (no fresh medium was added and only the medium recirculation pump recirculates the medium). Samples from the recirculation were taken before starting the experiment and after 1, 4, 8 and 24 hours and analyzed for the metabolites of the test substances by liquid chromatography/mass spectrometry (LC/MS). Analyses were performed at Astrazeneca AB, Gothenburg, Sweden. After the last sample was taken the bioreactor was flushed with fresh medium in single pass mode with two times the volume of the bioreactor and tubing system and then switched to the normal perfusion mode recirculation with fresh medium inflow). […]

[2] = system: CYP1A2; assay: CYP P450 activity test in bioreactor cultures (phenacetin to acetaminophen); type: in vitro ADME, human; conditions: bioreactors HepDiff-1 and HepDiff-2, hESC-derived cells, 26 μM at start, 24 h recirculation, LC/MS
Method: as §1, §2

[3] = system: HFF; assay: HFF feeder cell experiments in 2D cultures and bioreactors (activin A production, proliferation); type: cell-based, human
Method: The metabolic activity and differentiation of the cells inside the bioreactors were characterized on a daily basis by measuring soluble factors in the medium outflow and in the recirculating medium. The following parameters were measured using automated clinical chemistry analyzers (Roche Diagnostics, Heidelberg, Germany): α-fetoprotein (AFP), alkaline phosphatase (AP), alanine transaminase (ALT), aspartate transaminase (AST), beta-human chorionic gonadotropin (β-hCG), c-peptide, carcinoembryonic antigen (CEA), cytokeratin fragment 19 (Cyfra 21-1), erythropoetin, estradiol, follicle stimulating hormone (FSH), factors II-V-X-XIII, fibrinogen, gamma-glutamyltransferase (GGT), glucose, lactate, lactate dehydrogenase (LDH), luteinizing hormone, neuronspecific enolase (NSE), osmolality, osteocalcin, pseudocholinesterase (PCHE), prealbumin progesterone, prolactin, S-100, thyroid-stimulating hormone (TSH), tissue plasminogen activator (TPA), transferrin (for a detailed description of the measurement methods see Table 8 in appendix). Additionally glutamine, glutamate, glucose, lactate, ammonium, pH, sodium (Na+), potassium (K+) were measured with a BioProfile 100 Plus device (Nova Biomedical, Waltham, Mass., USA). Activin A, insulin and albumin were measured with enzyme-linked immunosorbent assays (ELISAs) following the manufacturer's recommendations (activin A using products DY338, DY999, DY994, DY995 from R&D Systems, Wiesbaden-Nordenstadt, Germany; insulin using an ELISA from Invitrogen; albumin using an ELISA from Albuwell, Exocell Inc., Philadelphia, Pa., USA). Urea was measured using a colorimetric determination kit (QuantiChrom, BioAssay Systems, Hayward, Calif., USA). Galactose and sorbitol concentrations were measured by enzymatic assays (Roche Diagnostics).
The pluripotency supporting activity of the HFF could be correlated with their production of activin A. To further examine the behaviour of the HFF feeder cells several experiments only with HFF were carried out in 2D cultures and in two bioreactors.
In one experiment, the bioreactor is inoculated with active HFF that will be cultured in medium supplemented with serum and bFGF to stimulate HFF proliferation. Increase of the cell number is monitored by the levels of glucose consumption and lactate production. When a sufficient cell number is reached culture medium is changed to hBS medium for conditioning. Optimal medium exchange rates have to be determined for example measuring activin A and glucose concentrations in the conditioned medium as quality control parameters. A low glucose level might indicate the demand for increasing the medium feed rate and a low activin A level might be a sign for insufficient conditioning unsuitable to promote hESC pluripotency.

In the case of `Cc1ncc2n1-c1ccc(Cl)cc1C(c1ccccc1F)=NC2` [midazolam, Midazolam], the metabolism of midazolam [1] is reported as “no metabolism”.

For `CCOc1ccc(NC(C)=O)cc1` [phenacetin, Phenacetin], the “metabolism of phenacetin by CYP1A1/1A2” value [2] was “Significant metabolism”.

basic fibroblast growth factor [bFGF] was tested, and the “mitogenic effect on HFF” value ([3]; bioreactor experiment HFF-2, medium supplemented with serum replacement) was “not observed”, the “activin A production by HFF” value ([3]; medium containing serum replacer) was “stimulated” and the “activin A production by HFF” value ([3]; medium supplemented with serum) was “did not stimulate”. The “mitogenic effect on active HFF” value ([3]; medium supplemented with serum, 2D and bioreactor experiment HFF-1) was “strong mitogenic effect”.
